# From US10821115B2, “Compounds that inhibit Mcl-1 protein” (priority 2017, dated 2020)
# Where two headings read alike, the source gives them in different places.
# Tests used:
# [1] = system: human multiple myeloma cell line, OPM-2; experiment: Cell viability assay (OPM-2 10 FBS), CellTiter-Glo; assay type: cell-based; conditions: Homo sapiens, OPM-2, 16 h
# Summary of the method: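 Cells were seeded at 3000 cells/well in RPMI 1640 with 10% FBS and exposed to serially diluted compounds for 16 h at 37 °C, 5% CO2.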
# [2] = molecular target: recombinant human Mcl-1 (residues 171-327) / Bim interaction (Homo sapiens (Human), UniProt Q07820); experiment: biochemical; assay type: binding; conditions: read-out: Mcl-1 HTRF IC50
# Sequence of recombinant human Mcl-1 (residues 171-327) / Bim interaction (Q07820 171-327): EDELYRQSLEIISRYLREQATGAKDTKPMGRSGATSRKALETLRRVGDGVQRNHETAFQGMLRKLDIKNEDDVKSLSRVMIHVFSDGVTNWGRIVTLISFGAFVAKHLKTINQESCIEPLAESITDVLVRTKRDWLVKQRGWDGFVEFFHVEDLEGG
# Description: The inhibition of the Mcl-1/Bim interaction was measured using a time-resolved fluorescence resonance energy transfer (TR-FRET) assay. […] The TR-FRET assay was conducted in a 384-well white OptiPlate™ (PerkinElmer, Waltham, Mass.) in a total volume of 40 μL. The reaction mixture contained 0.1 nM Mcl-1(171-327), 0.05 nM biotin-Bim (51-76), 0.05 nM LANCE® Eu-W1024 Anti-6×His (PerkinElmer), 0.072 nM Streptavidin-Xlent (Cisbio, Bedford, Mass.), and serially diluted test compounds in the binding buffer of 20 mM Hepes, pH 7.5, 150 mM NaCl, 0.016 mM Brij®35, and 1 mM dithiothreitol. Test compounds were pre-incubated with Mcl-1(171-327) and biotin-Bim (51-76) for 60 min before addition of the detection mixture (LANCE® Eu-W1024 Anti-6×His and Streptavidin-Xlent). The reaction plates were further incubated overnight and then were read on an Envision® multimode reader (PerkinElmer). Fluorescence signals were measured at 620 nm (40-nm bandwidth) and 665 nm (7.5-nm bandwidth) with a 60 is delay after excitation at 320 nm (75-nm bandwidth). The signal ratio at 665/620 nm corresponded to the Mcl-1/Bim interaction and was used in all data analyses. The IC50 values of test compounds were determined from duplicate data by analyzing competition curves using a four-parameter sigmoidal model in GraphPad Prism (GraphPad Software, San Diego, Calif.) or in Genedata Screener® (Genedata, Basel, Switzerland).
# [3] = read-out: OPM-2 10% FBS IC50 IP, OPM-2 cells, 10% FBS, 16 h, CellTiter-Glo
# [4] = TR-FRET, Mcl-1(171-327) / biotin-Bim (51-76)
# [5] = read-out: OPM-2 10% FBS IC50 IP, OPM-2 cells, 10% FBS, 16 h incubation
# [6] = 0.1 nM Mcl-1(171-327), 0.05 nM biotin-Bim (51-76)
Compound,"IC50 [1, 3]","IC50 [2, 4]","IC50 [1, 5]","IC50 [2, 6]"
"C[C@@H]1[C@@H](C)CCC[C@]2(CC(N3CCN(C)CC3)=NO2)[C@@H]2CC[C@H]2CN2C[C@@]3(CCCc4cc(Cl)ccc43)COc3ccc(cc32)C(=O)NS1(=O)=O [Example 100216, (1S,3′R,6′R,7′S,11′S,12′R)-6-chloro-11′,12′-dimethyl-3″-(4-methyl-1-piperazinyl)-3,4-dihydro-2H,4″H,15′H-dispiro[naphthalene-1,22′-[20]oxa[13]thia[1,14]diazatetracyclo [14.7.2.0~3,6~.0~19,24~]pentacosa[16,18,24]triene-7′,5″-[1,2]oxazol]-15′-one 13′,13′-dioxide]",374 nM,0.311 nM,–,–
"C[C@@H]1[C@@H](C)C/C=C/[C@@](O)(C2SCCCS2)[C@@H]2CC[C@H]2CN2C[C@@]3(CCCc4cc(Cl)ccc43)COc3ccc(cc32)C(=O)NS1(=O)=O [Example 100260, (1S,3′R,6′R,7′S,8′E,11′S,12′R)-6-chloro-7′-(1,3-dithian-2-yl)-7′-hydroxy-11′,12′-dimethyl-3,4-dihydro-2H,15′H-spiro[naphthalene-1,22′-[20]oxa[13]thia[1,14]diazatetracyclo [14.7.2.0~3,6~.0~19,24~]pentacosa[8,16,18,24]tetraen]-15′-one 13′,13′-dioxide]",94 nM,0.408 nM,–,–
CO[C@]1(CN2C[C@H]3CN(C)C[C@H]3C2)/C=C/C[C@H](C)[C@@H](C)S(=O)(=O)NC(=O)c2ccc3c(c2)N(C[C@@H]2CC[C@H]21)C[C@@]1(CCCc2cc(Cl)ccc21)CO3 [Example 82],–,–,520 nM,0.394 nM
"COc1cccc([C@]2(O)/C=C/C[C@H](C)[C@@H](C)S(=O)(=O)NC(=O)c3ccc4c(c3)N(C[C@@H]3CC[C@H]32)C[C@@]2(CCCc3cc(Cl)ccc32)CO4)n1 [Example 100191, (1S,3′R,6′R,7′S,8′E,11′S,12′R)-6-chloro-7′-hydroxy-7′-(6-methoxy-2-pyridinyl)-11′,12′-dimethyl-3,4-dihydro-2H,15′H-spiro[naphthalene-1,22′-[20]oxa[13]thia[1,14]diazatetracyclo [14.7.2.0~3,6~.0~19,24~]pentacosa[8,16,18,24]tetraen]-15′-one 13′,13′-dioxide]",557 nM,1.6 nM,–,–
"CO[C@@]1(CN2CCN3C[C@@H](C)OC[C@@H]3C2)/C=C/C[C@H](C)[C@@H](C)S(=O)(=O)NC(=O)c2ccc3c(c2)N(C[C@@H]2CC[C@H]21)C[C@@]1(CCCc2cc(Cl)ccc21)CO3 [Example 147, (1S,3′R,6′R,7′S,8′E,11′S,12′R)-6-chloro-7′-methoxy-11′,12′-dimethyl-7′-(((3R,9aS)-3-methylhexahydropyrazino[2,1-c][1,4]oxazin-8(1H)-yl)methyl)-3,4-dihydro-2H,15′H-spiro[naphthalene-1,22′-[20]oxa[13]thia[1,14]diazatetracyclo [14.7.2.0~3,6~.0~19,24~]pentacosa[8,16,18,24]tetraen]-15′-one 13′,13′-dioxide]",–,–,157 nM,0.376 nM
"CO[C@@]1(C2SCCCS2)CCC[C@H](C)[C@@H](C)S(=O)(=O)NC(=O)c2ccc3c(c2)N(C[C@@H]2CC[C@H]21)C[C@@]1(CCCc2cc(Cl)ccc21)CO3 [Example 100249, (1S,3′R,6′R,7′S,11′S,12′R)-6-chloro-7′-(1,3-dithian-2-yl)-7′-methoxy-11′,12′-dimethyl-3,4-dihydro-2H,15′H-spiro[naphthalene-1,22′-[20]oxa[13]thia[1,14]diazatetracyclo [14.7.2.0~3,6~.0~19,24~]pentacosa[16,18,24]trien]-15′-one 13′,13′-dioxide]",2270 nM,2.99 nM,–,–
